Data taken from US7763615B2, “Ecteinascidin analogs for use as antitumour agents” (priority 2001, dated 2010).
Where two headings read alike, the source gives them in different places.

Tests used:
[1] = system: NRK-52E, normal rat kidney cells; settings: 24 h
[2] = system: H9c2 (2-1), normal rat cardiac muscle cells; settings: 24 h
[3] = system: AML-12, normal mouse liver cells; settings: 24 h
H-MEC-1 = assay: Inhibition of cells growth by colorimetric assay (SRB), H-MEC-1; format: cell-based
Text: (§1) The finality of these assays is to interrupt the growth of a “in vitro” tumor cell culture by means of a continued exhibition of the cells to the sample to be testing.
(§2) A colorimetric type of assay, using sulphorhodamine B (SRB) reaction has been adapted for a quantitative measurement of cell growth and viability [following the technique described by Philip Skehan, et al. (1990), New colorimetric cytotoxicity assay for anticancer drug screening, J. Natl. Cancer Inst., 82:1107-1112]
(§3) This form of the assay employs 96 well cell culture microplates of 9 mm diameter (Faircloth, 1988; Mosmann, 1983). Most of the cell lines are obtained from American Type Culture Collection (ATCC) derived from different human cancer types.
(§4) Cells are maintained in RPMI 1640 10% FBS, supplemented with 0.1 g/l penicillin and 0.1 g/l streptomycin sulphate and then incubated at 37° C., 5% CO2 and 98% humidity. For the experiments, cells were harvested from subconfluent cultures using trypsin and resuspended in fresh medium before plating.
(§5) Cells are seeded in 96 well microtiter plates, at 5×10^3 cells per well in aliquots of 195 μl medium, and they are allowed to attach to the plate surface by growing in drug free medium for 18 hours. Afterward, samples are added in aliquots of 5 μl in a ranging from 10 to 10^−8 μg/ml, dissolved in DMSO/EtOH/PBS (0.5:0.5:99). After 48 hours exposure, the antitumor effect are measured by the SRB methodology: cells are fixed by adding 50 μl of cold 50% (wt/vol) trichloroacetic acid (TCA) and incubating for 60 minutes at 4° C. Plates are washed with deionized water and dried. One hundred μl of SRB solution (0.4% wt/vol in 1% acetic acid) is added to each microtiter well and incubated for 10 minutes at room temperature. Unbound SRB is removed by washing with 1% acetic acid. Plates are air dried and bound stain is solubilized with Tris buffer. Optical densities are read on a automated spectrophotometric plate reader at a single wavelength of 490 nm.
(§6) The values for mean+/− SD of data from triplicate wells are calculated. Some parameters for cellular responses can be calculated: GI=growth inhibition, TGI=total growth inhibition (cytostatic effect) and LC=cell killing (cytotoxic effect).

[4] = system: L8, normal rat skeletal muscle cells; settings: 24 h
Protocol: In order to assess the cytotoxicity of the drugs to normal cells, we used 96 well plates plated at a density of 5000 cells per well (except for the FDC-P1 which were plated at 12,000 cells per well) with normal cell lines (ATCC, Table 1) maintained as per the directions of the ATCC: AML-12, normal mouse liver cells; NRK-52E, normal rat kidney cells; L8, normal rat skeletal muscle cells; FDC-P1, normal mouse myelogeous stem cells; and H9c2 (2-1), normal rat cardiac muscle cells. The cells in each plate were permitted to settle overnight before adding the test drug.
To each well (100 μl medium) 10 μl of drug in media was added at varying concentrations (1×10-10-0.01 mg/ml final concentration) and further incubated overnight at 37° C. with 5% CO2. After 24 h the following assays were performed. All experiments were repeated at least 3 times and were assayed in duplicate.
MTS assay (CellTiter 96 aqueous) was performed according to the manufacturer's (Promega) directions (for all cell types). Cell viability (mitochondrial activity) is determined via enzymatic conversion of the formazan substrate.

[5] = system: FDC-P1, normal mouse myelogeous stem cells; settings: 24 h
LNCAP = assay: cells; format: cell-based
In short: (§7)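 Cells plated at 5×10^3 per well; 18 h later, test samples added across 10 to 10^−8 μg/ml; incubation continued 48 h at 37° C, 5% CO2. Cells then fixed with cold TCA, stained with SRB, dye solubilised in Tris, and optical density measured at 490 nm.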

PANC-1 = assay: cells; format: cell-based; settings: PANC-1, 48 hours exposure, SRB; for CC50: read-out: LC50
In short: as §7

DU145 = assay: cells; format: cell-based
In short: as §7

SK-BR3 = assay: cells; format: cell-based; settings: SK-BR3, 48 hours exposure, SRB; for CC50: read-out: LC50
In short: as §7

IGROV-ET = assay: cells; format: cell-based
In short: as §7

HT29 = assay: cells; format: cell-based
In short: as §7

MEL-28 = assay: cells; format: cell-based; settings: MEL-28, 48 hours exposure, SRB; for CC50: read-out: LC50
In short: as §7

K562 = assay: cells; format: cell-based; settings: K562, 48 hours exposure, SRB; for CC50: read-out: LC50
In short: as §7

A549 = assay: cells; format: cell-based; settings: A549, 48 hours exposure, SRB; for GI50: read-out: GI50; for CC50: read-out: LC50
In short: as §7

IGROV = assay: cells; format: cell-based; settings: for GI50 / TGI: 48 hours exposure, SRB; for CC50: read-out: LC50, 48 hours exposure, SRB
In short: as §7

LOVO = assay: cells; format: cell-based
In short: as §7

LOVO-DOX = assay: cells; format: cell-based
In short: as §7

SK-OV3 = assay: Inhibition of cells growth by colorimetric assay (SRB), SK-OV3; format: cell-based
Text: as §1, §2, §3, §4, §5, §6

[6] = H-MEC-1, 48 hours exposure, SRB
[7] = Homo sapiens, LNCaP, 48 h, 48 hours exposure, SRB
[8] = IGROV-ET, 48 hours exposure, SRB
[9] = Homo sapiens, HT-29, 48 h, HT29, 48 hours exposure, SRB
[10] = Homo sapiens, LoVo, 48 h, 48 hours exposure, SRB
[11] = LOVO-DOX, 48 hours exposure, SRB

Structure (SMILES): COc1c(C)cc2c(c1O)[C@@H]1C3[C@@H]4SC[C@]5(NC(C)Cc6c5[nH]c5ccc(O)cc65)C(=O)COC[C@@H](c5c6c(c(C)c(OC(C)=O)c54)OCO6)N3[C@@H](O)[C@H](C2)N1C (stereo partly drawn) [Compound 37]
- Kidney [1]: 2.92E−08
- Heart [2]: 1.74E−08
- Liver [3]: 5.46E−09
- TGI (H-MEC-1; [6]): 3.58E−08 Molar
- GI50 (H-MEC-1; Homo sapiens, HMEC-1, 48 h, H-MEC-1, 48 hours exposure, SRB): 2.22 nM
- CC50 (H-MEC-1; Homo sapiens, HMEC-1, 48 h, read-out: LC50, H-MEC-1, 48 hours exposure, SRB): 12.7 µM
- Skeletal [4]: 2.22E−08
- Myelo [5]: 4.59E−09
- GI50 (LNCAP; [7]): 0.26 nM
- IC (TGI) (LNCAP; [7]): 856 pM
- CC50 (LNCAP; Homo sapiens, LNCaP, 48 h, read-out: LC50, LNCAP, 48 hours exposure, SRB): 4.75 nM
- GI50 (PANC-1; Homo sapiens, PANC-1, 48 h): 3.12 nM
- IC (TGI) (PANC-1; Homo sapiens, PANC-1, 48 h): 0.0118 µM
- CC50 (PANC-1): 3020 nM
- GI50 (DU145; DU145, 48 hours exposure, SRB): 4.6 nM
- IC (TGI) (DU145; Homo sapiens, DU-145, 48 h, DU145, 48 hours exposure, SRB): 0.0106 µM
- CC50 (DU145; Homo sapiens, DU-145, 48 h, read-out: LC50, DU145, 48 hours exposure, SRB): 12.7 µM
- GI50 (SK-BR3): 2.96 nM
- TGI (SK-BR3): 6.80E−09 Molar
- CC50 (SK-BR3): 141 nM
- IC (TGI) (IGROV-ET; Homo sapiens, 48 h, IGROV-ET, 48 hours exposure, SRB): 0.119 µM
- CC50 (IGROV-ET; Homo sapiens, 48 h, read-out: LC50, IGROV-ET, 48 hours exposure, SRB): 12.7 µM
- GI50 (IGROV-ET; [8]): 37.6 nM
- GI50 (HT29; [9]): 3.71 nM
- IC (TGI) (HT29; [9]): 0.014 µM
- CC50 (HT29; Homo sapiens, HT-29, 48 h, read-out: LC50, HT29, 48 hours exposure, SRB): 12.7 µM
- GI50 (MEL-28; Homo sapiens, SK-MEL-28, 48 h): 2.4 nM
- IC (TGI) (MEL-28; Homo sapiens, SK-MEL-28, 48 h): 6.82 nM
- CC50 (MEL-28): 33.5 nM
- GI50 (K562; Homo sapiens, K562, 48 h): 0.492 nM
- IC (TGI) (K562; Homo sapiens, K562, 48 h): 1.36 nM
- CC50 (K562): 12.7 nM
- TGI (A549): 2.17E−08 Molar
- GI50 (A549; Homo sapiens, A549, 48 h): 4.23 nM
- CC50 (A549): 138 nM
- GI50 (IGROV): 2.82 nM
- TGI (IGROV): 7.06E−09 Molar
- CC50 (IGROV): 613 nM
- GI50 (LOVO; [10]): 2.92 nM
- IC (TGI) (LOVO; [10]): 8.97 nM
- CC50 (LOVO; Homo sapiens, LoVo, 48 h, read-out: LC50, LOVO, 48 hours exposure, SRB): 12.7 µM
- GI50 (LOVO-DOX; Homo sapiens, 48 h, LOVO-DOX, 48 hours exposure, SRB): 61.7 nM
- CC50 (LOVO-DOX; Homo sapiens, 48 h, read-out: LC50, LOVO-DOX, 48 hours exposure, SRB): 12.7 µM
- TGI (LOVO-DOX; [11]): 4.10E−07 Molar
- GI50 (SK-OV3; Homo sapiens, SK-OV-3, 48 h, SK-OV3, 48 hours exposure, SRB): 3.57 nM
- CC50 (SK-OV3; Homo sapiens, SK-OV-3, 48 h, read-out: LC50, SK-OV3, 48 hours exposure, SRB): 12.7 µM
- TGI (SK-OV3; SK-OV3, 48 hours exposure, SRB): 1.07E−08 Molar

Structure (SMILES): COc1c(C)cc2c(c1O)[C@@H]1C3[C@@H]4SC[C@]5(C(=O)COC[C@@H](c6c7c(c(C)c(OC(C)=O)c64)OCO7)N3[C@@H](O)[C@H](C2)N1C)c1[nH]c2ccccc2c1CCN5C (stereo partly drawn) [Compound 40]
- Kidney [1]: 2.95E−08
- Liver [3]: 3.86E−08
- GI50 (H-MEC-1; [6]): 2.45 nM
- TGI (H-MEC-1; [6]): 5.31E−09 Molar
- CC50 (H-MEC-1; read-out: LC50, H-MEC-1, 48 hours exposure, SRB): 0.0115 µM
- Skeletal [4]: 2.11E−07
- Myelo [5]: 4.08E−08
- GI50 (LNCAP; LNCAP, 48 hours exposure, SRB): 1.02 nM
- TGI (LNCAP; LNCAP, 48 hours exposure, SRB): 2.48E−09 Molar
- CC50 (LNCAP; read-out: LC50, LNCAP, 48 hours exposure, SRB): 5.88 nM
- GI50 (PANC-1): 2.82 nM
- TGI (PANC-1): 7.17E−09 Molar
- CC50 (PANC-1): 128 nM
- GI50 (DU145; DU145, 48 hours exposure, SRB): 2.35 nM
- TGI (DU145; DU145, 48 hours exposure, SRB): 6.41E−09 Molar
- CC50 (DU145; read-out: LC50, DU145, 48 hours exposure, SRB): 2.45 µM
- GI50 (SK-BR3): 2.56 nM
- TGI (SK-BR3): 6.50E−09 Molar
- CC50 (SK-BR3): 28 nM
- GI50 (IGROV-ET; [8]): 2.42 nM
- TGI (IGROV-ET; [8]): 8.66E−09 Molar
- CC50 (IGROV-ET; read-out: LC50, IGROV-ET, 48 hours exposure, SRB): 4.8 µM
- GI50 (HT29; HT29, 48 hours exposure, SRB): 3.26 nM
- TGI (HT29; HT29, 48 hours exposure, SRB): 1.06E−08 Molar
- CC50 (HT29; read-out: LC50, HT29, 48 hours exposure, SRB): 13 µM
- GI50 (MEL-28): 19.6 nM
- TGI (MEL-28): 4.70E−08 Molar
- CC50 (MEL-28): 112 nM
- GI50 (K562): 0.843 nM
- TGI (K562): 6.87E−09 Molar
- CC50 (K562): 80 nM
- TGI (A549): 4.11E−09 Molar
- GI50 (A549): 2.41 nM
- CC50 (A549): 7.02 nM
- GI50 (IGROV): 1.96 nM
- TGI (IGROV): 4.17E−09 Molar
- CC50 (IGROV): 8.86 nM
- GI50 (LOVO; LOVO, 48 hours exposure, SRB): 2.51 nM
- TGI (LOVO; LOVO, 48 hours exposure, SRB): 5.98E−09 Molar
- CC50 (LOVO; read-out: LC50, LOVO, 48 hours exposure, SRB): 0.0238 µM
- GI50 (LOVO-DOX; [11]): 30.4 nM
- TGI (LOVO-DOX; [11]): 9.12E−08 Molar
- CC50 (LOVO-DOX; read-out: LC50, LOVO-DOX, 48 hours exposure, SRB): 0.551 µM
- GI50 (SK-OV3; SK-OV3, 48 hours exposure, SRB): 2.9 nM
- TGI (SK-OV3; SK-OV3, 48 hours exposure, SRB): 6.28E−09 Molar
- CC50 (SK-OV3; read-out: LC50, SK-OV3, 48 hours exposure, SRB): 0.013 µM
